# Results from the supplement of paper PMC11061612.
# Key:
# [1] = tested on: BFTC-905 (Bladder Carcinoma); experiment: Bliss excess, mean over the matrix (fraction); higher = more synergy
# Outline: (§1)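 Cell lines grown in DMEM/F12 or RPMI with 10% FBS were plated in 1536-well plates and held 24 hours at 37°C, 5% CO2 before 72 hours of exposure to two-drug dose matrices, with DMSO typically at 0.2%. CellTiter-Glo 2.0 luminescence gave viability, which was converted to inhibition. Vehicle wells were set to 0 and blank wells to 1. Combination Emax is the second-highest inhibition in the matrix, and Bliss excess is the observed combination effect minus the expected EA + EB − EA·EB, where EA and EB are the single-agent effects.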
# [2] = tested on: BL-41 (Burkitt's Lymphoma); experiment: as above
# Outline: as §1
# [3] = tested on: CAMA-1 (Breast Carcinoma); experiment: as above
# Outline: as §1
# [4] = tested on: DND-41 (T-Lymphoblastic Leukemia); experiment: as above
# Outline: as §1
# ES1 (Ewing's Sarcoma) [5] = experiment: as above
# Outline: as §1
# ES8 (Ewing's Sarcoma) [6] = experiment: as above
# Outline: as §1
# [7] = tested on: GR-ST (B-Lymphoblastic Leukemia); experiment: as above
# Outline: as §1
# [8] = tested on: K-562 (Chronic Myelogenous Leukemia); experiment: as above
# Outline: as §1
# [9] = tested on: L-540 (Hodgkin's Lymphoma); experiment: as above
# Outline: as §1
# [10] = tested on: MKN28 (Gastric Carcinoma); experiment: as above
# Outline: as §1
# [11] = tested on: NCI-H1792 (Lung Adenocarcinoma); experiment: as above
# Outline: as §1
# NCI-H2818 (Mesothelioma) [12] = experiment: as above
# Outline: as §1
# [13] = tested on: SR (Other Blood Carcinomas); experiment: as above
# Outline: as §1
# [14] = tested on: SW1417 (Colorectal Carcinoma); experiment: as above
# Outline: as §1
# [15] = tested on: SW837 (Colorectal Carcinoma); experiment: as above
# Outline: as §1
# WIL2-NS (Non-Cancerous) [16] = experiment: as above
# Outline: as §1
# WM-115 (Melanoma) [17] = experiment: as above
# Outline: as §1
# [18] = tested on: BFTC-905 (Bladder Carcinoma); experiment: combination Emax (second highest fraction inhibited in the dose matrix, 72 h); higher = more inhibition; extreme values may be limits of the assay
# Outline: as §1
# [19] = tested on: BL-41 (Burkitt's Lymphoma); experiment: as above
# Outline: as §1
# [20] = tested on: CAMA-1 (Breast Carcinoma); experiment: as above
# Outline: as §1
# [21] = tested on: DND-41 (T-Lymphoblastic Leukemia); experiment: as above
# Outline: as §1
# ES1 (Ewing's Sarcoma) [22] = experiment: as above
# Outline: as §1
# ES8 (Ewing's Sarcoma) [23] = experiment: as above
# Outline: as §1
# [24] = tested on: GR-ST (B-Lymphoblastic Leukemia); experiment: as above
# Outline: as §1
# [25] = tested on: K-562 (Chronic Myelogenous Leukemia); experiment: as above
# Outline: as §1
# [26] = tested on: L-540 (Hodgkin's Lymphoma); experiment: as above
# Outline: as §1
# [27] = tested on: MKN28 (Gastric Carcinoma); experiment: as above
# Outline: as §1
# [28] = tested on: NCI-H1792 (Lung Adenocarcinoma); experiment: as above
# Outline: as §1
# NCI-H2818 (Mesothelioma) [29] = experiment: as above
# Outline: as §1
# [30] = tested on: SR (Other Blood Carcinomas); experiment: as above
# Outline: as §1
# [31] = tested on: SW1417 (Colorectal Carcinoma); experiment: as above
# Outline: as §1
# [32] = tested on: SW837 (Colorectal Carcinoma); experiment: as above
# Outline: as §1
# WIL2-NS (Non-Cancerous) [33] = experiment: as above
# Outline: as §1
# WM-115 (Melanoma) [34] = experiment: as above
# Outline: as §1
# 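Wherever Bliss excess, mean over the matrix is given: after 72 h of two-drug dosing.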
Structure (SMILES),Bliss excess [1],Bliss excess [2],Bliss excess [3],Bliss excess [4],Bliss excess (ES1 (Ewing's Sarcoma) [5]),Bliss excess (ES8 (Ewing's Sarcoma) [6]),Bliss excess [7],Bliss excess [8],Bliss excess [9],Bliss excess [10],Bliss excess [11],Bliss excess (NCI-H2818 (Mesothelioma) [12]),Bliss excess [13],Bliss excess [14],Bliss excess [15],Bliss excess (WIL2-NS (Non-Cancerous) [16]),Bliss excess (WM-115 (Melanoma) [17]),combination Emax [18],combination Emax [19],combination Emax [20],combination Emax [21],combination Emax (ES1 (Ewing's Sarcoma) [22]),combination Emax (ES8 (Ewing's Sarcoma) [23]),combination Emax [24],combination Emax [25],combination Emax [26],combination Emax [27],combination Emax [28],combination Emax (NCI-H2818 (Mesothelioma) [29]),combination Emax [30],combination Emax [31],combination Emax [32],combination Emax (WIL2-NS (Non-Cancerous) [33]),combination Emax (WM-115 (Melanoma) [34])
"C=CCn1c(=O)c2cnc(Nc3ccc(N4CCN(C)CC4)cc3)nc2n1-c1cccc(C(C)(C)O)n1 [AZD1775] + CCc1c2c(nc3ccc(O)cc13)-c1cc3c(c(=O)n1C2)COC(=O)[C@]3(O)CC [SN-38] (first compound max 1 µM, partner max 0.3 µM)",-0.0133,-0.0252,0.0473,-0.0446,-0.0144,-0.0145,-0.0824,0.0873,-0.0458,0.0317,-0.0124,-0.063,0.0049,-0.0298,-0.0222,-0.0755,-0.0252,0.946,1,0.466,0.983,1,1,0.825,0.953,0.953,0.689,0.755,0.399,1,0.793,0.703,0.961,0.416
"O=C(c1cc(Cc2n[nH]c(=O)c3ccccc23)ccc1F)N1CCN(C(=O)C2CC2)CC1 [Olaparib] + CN(CC[C@H](CSC1=CC=CC=C1)NC2=C(C=C(C=C2)S(=O)(=O)NC(=O)C3=CC=C(C=C3)N4CCC(CC4)[C@H](C5=CC=CC=C5C6=CC=C(C=C6)Cl)O)S(=O)(=O)C(F)(F)F)CCO [AZD4320] (first compound max 10 µM, 7x7, partner max 1 µM)",-0.0089,0.0193,-0.0317,-0.0067,0.0333,0.0463,0.0012,-0.0155,-0.0017,-0.0269,-0.0399,-0.0504,0.146,-0.0183,-0.053,0.0107,-0.0631,0.346,0.417,0.278,1,0.918,0.982,0.462,0.253,0.618,0.147,0.154,0.186,0.709,0.651,0.197,0.509,0.37
"CC1(C)CCC(CN2CCN(c3ccc(C(=O)NS(=O)(=O)c4ccc(NCC5CCOCC5)c([N+](=O)[O-])c4)c(Oc4cnc5[nH]ccc5c4)c3)CC2)=C(c2ccc(Cl)cc2)C1 [Venetoclax] + CS(=O)(=O)CCNCc1ccc(-c2ccc3ncnc(Nc4ccc(OCc5cccc(F)c5)c(Cl)c4)c3c2)o1 [Lapatinib] (first compound max 1 µM, 7x7, partner max 10 µM)",-0.0591,0.0434,-0.0271,-0.0268,-0.0215,-0.0229,-0.0246,-0.0039,-0.005,-0.0303,-0.0311,-0.0651,0.0557,-0.0168,-0.0498,0.0039,-0.0897,0.254,0.855,0.162,0.81,0.381,0.506,0.934,0.451,0.532,0.397,0.345,0.174,0.36,0.136,0.185,0.348,0.237
"CS(=O)(=O)CCNCc1ccc(-c2ccc3ncnc(Nc4ccc(OCc5cccc(F)c5)c(Cl)c4)c3c2)o1 [Lapatinib] + Cn1cnc2c(F)c(Nc3ccc(Br)cc3Cl)c(C(=O)NOCCO)cc21 [Selumetinib] (first compound max 10 µM, 7x7, partner max 10 µM)",0.0619,-0.0346,-0.0009,0.0178,0.0071,0.036,-0.03,-0.0324,-0.0147,0.0057,0.0012,-0.0295,0.0398,0.0847,0.0194,0.0098,0.0205,0.804,0.907,0.187,0.871,0.452,0.555,0.969,0.564,0.511,0.545,0.527,0.28,0.707,0.698,0.732,0.321,0.531
